In PubChem BioAssay AID588415 (Sanford-Burnham Center for Chemical Genomics, 2011):
Active and inactive are the calls of the source.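 How the source made its calls: active means IC50 at or below 20 µM; inactive means the rest.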

Target: glucose-6-phosphate dehydrogenase-6-phosphogluconolactonase (PfGluPho), Plasmodium falciparum 3D7
Experiment: inhibition of P. falciparum G6PD activity – biochemical, fluorescence intensity, SAR follow-up (AID 588415)
Details: recombinant PfG6PD, resazurin-diaphorase NADPH fluorescence

| IC50 | Structure (SMILES) |
| --- | --- |
| 4.89 µM | COc1cccc(C(=O)Nc2nnc(S(=O)(=O)N3CCCCCC3)s2)c1 |
| > 80 µM (inactive) | Cc1cccc(C(=O)Nc2nnc(S(=O)(=O)N3c4ccccc4CC3C)s2)c1 (centres undefined) |
| > 80 µM (inactive) | O=C(Nc1nnc(S(=O)(=O)N2CCCCCC2)s1)c1cccc(F)c1 |
| inactive | CCN(CC)CCNC(=O)c1ccc2c(c1)N(Cc1ccc(C)cc1)C(=O)c1ccccc1S2 |
| > 80 µM (inactive) | O=C(Nc1nnc(S(=O)(=O)N2CCCCCC2)s1)c1ccccc1F |
| inactive | COc1ccc(C(=O)Nc2nnc(S(=O)(=O)N3CCCCCC3)s2)cc1 |
| > 80 µM (inactive) | CC1Cc2ccccc2N1S(=O)(=O)c1nnc(NC(=O)c2cccc(Br)c2)s1 (centres undefined) |
| > 80 µM (inactive) | CCOc1ccc(C(=O)Nc2nnc(S(=O)(=O)N3CCCCCC3)s2)cc1 |
| > 80 µM (inactive) | O=C(Nc1nnc(S(=O)(=O)N2CCCc3ccccc32)s1)c1cccc(F)c1 |
| inactive | O=C(Nc1nnc(S(=O)(=O)N2CCCCCC2)s1)c1ccccc1 |
| > 80 µM (inactive) | Cc1cccc(C(=O)Nc2nnc(S(=O)(=O)N3CCCc4ccccc43)s2)c1 |
| > 80 µM (inactive) | Cc1ccccc1C(=O)Nc1nnc(S(=O)(=O)N2CCCCCC2)s1 |
| 5.6 µM | O=C(Nc1nnc(S(=O)(=O)N2CCCCCC2)s1)c1cccc(Cl)c1 |
| > 80 µM (inactive) | Cc1ccc(C(=O)Nc2nnc(S(=O)(=O)N3CCCc4ccccc43)s2)cc1 |
| > 80 µM (inactive) | Cc1ccc(C(=O)Nc2nnc(S(=O)(=O)N3CCCCCC3)s2)cc1 |
| 7.35 µM | O=C(Nc1nnc(S(=O)(=O)N2CCCCCC2)s1)c1cccc(Br)c1 |
| 13 µM | Cc1cccc(C(=O)Nc2nnc(S(=O)(=O)N3CCC(C)CC3)s2)c1 |
| > 80 µM (inactive) | O=C(Nc1nnc(S(=O)(=O)N2CCCCCC2)s1)c1ccco1 |
| inactive | O=C(Nc1nnc(S(=O)(=O)N2CCCCCC2)s1)c1ccc(F)cc1 |
| > 80 µM (inactive) | Cc1ccccc1C(=O)Nc1nnc(S(=O)(=O)N2CCCc3ccccc32)s1 |
| > 80 µM (inactive) | O=C(Nc1nnc(S(=O)(=O)N2CCCCC2)s1)c1cccc(F)c1 |
| 8.71 µM | Cc1cccc(C(=O)Nc2nnc(S(=O)(=O)N3CCCCCC3)s2)c1 |
| > 80 µM (inactive) | COc1ccccc1C(=O)Nc1nnc(S(=O)(=O)N2CCCCCC2)s1 |
| > 80 µM (inactive) | Cc1ccc(C(=O)Nc2nnc(S(=O)(=O)N3c4ccccc4CC3C)s2)cc1 (centres undefined) |
| > 80 µM (inactive) | CC1Cc2ccccc2N1S(=O)(=O)c1nnc(NC(=O)c2cccc(F)c2)s1 (centres undefined) |
| > 80 µM (inactive) | COc1ccc(C(=O)Nc2nnc(S(=O)(=O)N3CCCCCC3)s2)cc1OC |
| 4.17 µM | Cc1cccc(C(=O)Nc2nnc(S(=O)(=O)N3CCOCC3)s2)c1 |
| inactive | Cc1ccc(CN2C(=O)c3ccccc3Sc3ccc(C(=O)NCCN(C)C)cc32)cc1 |
| inactive | O=C(Nc1nnc(S(=O)(=O)N2CCOCC2)s1)c1cccc(F)c1 |
| > 80 µM (inactive) | Cc1cccc(N2CCN(CCNC(=O)c3ccc4c(c3)NC(=O)c3ccccc3S4)CC2)c1C |

The remaining lines, values behind:

| Structure (SMILES) | IC50 |
| --- | --- |
| COc1ccc(/C=C2/Sc3ccc(C(=O)NCCN4CCCCCC4)cc3NC2=O)cc1 | > 80 µM (inactive) |
| CCN(CC)CCNC(=O)c1ccc2c(c1)NC(=O)/C(=C\c1ccccc1Cl)S2 | 16.2 µM |
| CN(C)CCNC(=O)c1ccc2c(c1)NC(=O)/C(=C\c1cccc(Cl)c1)S2 | inactive |
| CCN1CCCC1CNC(=O)c1ccc2c(c1)NC(=O)/C(=C/c1ccccc1F)S2 (centres undefined) | 1.73 µM |
| CCN(CC)CCNC(=O)c1ccc2c(c1)NC(=O)/C(=C\c1ccccc1F)S2 | 7.36 µM |
| CCN1CCCC1CNC(=O)c1ccc2c(c1)N(Cc1ccc(C(F)(F)F)cc1)C(=O)c1ccccc1S2 (centres undefined) | > 80 µM (inactive) |
| COc1ccc(/C=C2/Sc3ccc(C(=O)NCCN(C)C)cc3NC2=O)cc1 | > 80 µM (inactive) |
| Cc1cccc(/C=C2/Sc3ccc(C(=O)NCCN4CCCC4)cc3NC2=O)c1 | 11.8 µM |
| CCN(CC)CCNC(=O)c1ccc2c(c1)NC(=O)/C(=C/c1ccccc1)S2 | 8.81 µM |
| CCN1CCCC1CNC(=O)c1ccc2c(c1)N(Cc1ccccc1F)C(=O)c1ccccc1S2 (centres undefined) | > 80 µM (inactive) |
| O=C1Nc2cc(C(=O)NCCN3CCCCCC3)ccc2S/C1=C/c1ccccc1Cl | inactive |
| CCCN(CCC)CCNC(=O)c1ccc2c(c1)NC(=O)/C(=C\c1ccc(C)cc1)S2 | > 80 µM (inactive) |
| CCN1CCCC1CNC(=O)c1ccc2c(c1)N(Cc1ccccc1Cl)C(=O)c1ccccc1S2 (centres undefined) | > 80 µM (inactive) |
| COc1ccc(/C=C2/Sc3ccc(C(=O)NCCN4CCCC4)cc3NC2=O)cc1 | inactive |
| CCC(C)N(CCNC(=O)c1ccc2c(c1)NC(=O)c1ccccc1S2)C1CCCCC1 (centres undefined) | 6.36 µM |
| CCN1CCCC1CNC(=O)c1ccc2c(c1)NC(=O)/C(=C\c1ccccc1Cl)S2 (centres undefined) | 2.56 µM |
| CCN(CCNC(=O)c1ccc2c(c1)NC(=O)c1ccccc1S2)c1ccccc1 | > 80 µM (inactive) |

| Structure (SMILES) | IC50 |
| --- | --- |
| CCN(CC)CCNC(=O)c1ccc2c(c1)NC(=O)/C(=C\c1ccc(OC)c(OC)c1)S2 | inactive |
| CCN(CCNC(=O)c1ccc2c(c1)N(CC)C(=O)c1ccccc1S2)c1ccccc1 | > 80 µM (inactive) |
| CCN(CC)CCNC(=O)c1ccc2c(c1)NC(=O)c1ccccc1S2 | inactive |
| CCN(CCNC(=O)c1ccc2c(c1)N(Cc1cc(C)ccc1C)C(=O)c1ccccc1S2)c1ccccc1 | > 80 µM (inactive) |
| CCN(CC)CCNC(=O)c1ccc2c(c1)NC(=O)/C(=C\c1ccc(OC)cc1)S2 | inactive |
| O=C1Nc2cc(C(=O)NCCN3CCCC3)ccc2S/C1=C/c1ccccc1Cl | 11.1 µM |
| CCN1CCCC1CNC(=O)c1ccc2c(c1)NC(=O)c1ccccc1S2 (centres undefined) | 12.2 µM |
| CCN(CC)CCNC(=O)c1ccc2c(c1)N(Cc1ccccc1Cl)C(=O)c1ccccc1S2 | > 80 µM (inactive) |
| COc1cccc(/C=C2/Sc3ccc(C(=O)NCCN4CCCC4)cc3NC2=O)c1 | inactive |
| O=C1Nc2cc(C(=O)NCCN3CCCCCC3)ccc2S/C1=C/c1ccccc1F | inactive |
| CN(CCNC(=O)c1ccc2c(c1)NC(=O)c1ccccc1S2)C1CCCCC1 | inactive |
| O=C(Nc1nnc(S(=O)(=O)N2CCCCCC2)s1)C1CCCCC1 | > 80 µM (inactive) |
| CCN1CCCC1CNC(=O)c1ccc2c(c1)N(Cc1cccc(F)c1)C(=O)c1ccccc1S2 (centres undefined) | > 80 µM (inactive) |
| COc1cccc(/C=C2/Sc3ccc(C(=O)NCCN4CCCCCC4)cc3NC2=O)c1 | > 80 µM (inactive) |
| CCN(CC)CCNC(=O)c1ccc2c(c1)N(Cc1cc(C)ccc1C)C(=O)c1ccccc1S2 | > 80 µM (inactive) |
| CCN1CCCC1CNC(=O)c1ccc2c(c1)NC(=O)/C(=C\c1ccccc1F)S2 (centres undefined) | 1.75 µM |
| CCCN(CCC)CCNC(=O)c1ccc2c(c1)NC(=O)/C(=C/c1ccccc1)S2 | > 80 µM (inactive) |
